Legend:
[1] = test system: LPS-induced TLR-4 activation of RAW264.7 cells; assay: LPS neutralization: LPS-induced TNFα release; type: cell-based, murine; conditions: peptide 0.08-20 μM; for Summary class, TLR activation LPS: 100 ng/ml LPS E. coli O111:B4, TNFα after 2 h, − = no significant effect, N = 3; for LPS neutralization / inhibition of LPS-induced activation, in words: 100 ng/ml LPS, 2 h, TNFα
Excerpt: TLR ligands: LPS Escherichia coli (E. coli) O111:B4 (TLR-4), LTA S. aureus (TLR-2), and ODN-1826 (TLR-9) were obtained from Invivogen (Toulouse, France). Chicken CATH-2 (chCATH-2) and PMAP-36 were synthesized by Fmoc-chemistry at China Peptides (CPC scientific, Sunnycale, CA) and all other cathelicidins were synthesized by Fmoc-chemistry at the Academic Centre for Dentistry Amsterdam (Amsterdam, The Netherlands) (Table 1). Purity of all peptides was >95% as analyzed by HPLC-MS.
RAW264.7 cells were stimulated with 100 ng/ml LPS E. coli O111:B4, 1 μg/ml LTA S. aureus or 2.5 nM ODN-1826 in the presence of various concentrations of different cathelicidins. TNFα release was determined after 2 h for LPS and LTA stimulation and 24 h for ODN-1826 stimulation. CXCL10, CCL5 and IL-10 release were all determined after 24 h stimulation. As a control, RAW264.7 cells were stimulated for 2 h with 10^6 CFU/ml live or heat-killed (70 °C, 0.5 h) E. coli O78, followed by a double wash with cell culture medium and subsequent 22 h incubation in cell culture medium supplemented with 250 μg/ml gentamicin.
ELISA Duoset kits for mouse TNFα, CCL5, CXCL10 and IL-10 were obtained from R&D systems (Minneapolis, MN, USA) and ELISAs were performed according to the manufacturer’s protocol. Samples were stored at −20 °C until analysis and, if needed, diluted in 1% BSA in PBS, pH 7.4. Absorbance at 450 nm was determined in a FLUOstar Omega microplate reader (BMG Labtech GmbH) and corrected for absorbance at 570 nm. Results were analyzed with MARS data analysis software (BMG Labtech GmbH).
RAW264.7 cells were stimulated for 2 h with 100 ng/ml LPS from E. coli O111:B4 in the presence of different cathelicidins at various concentrations to study the capability of LPS neutralization (Fig. 3A). […] Next, RAW264.7 cells were stimulated with 1 μg/ml S. aureus LTA for 2 h in the presence of various cathelicidin concentrations, to test LTA neutralization (Fig. 3B).
Figure 3 Effects of cathelicidins on TLR-2, -4, and -9 activation. LPS (100 ng/ml) (A), LTA (1 μg/ml) (B) or ODN-1826 (2.5 nM) (C) was mixed with different cathelicidins (0.08 μM, 0.31 μM, 1.25 μM, 5 μM, and 20 μM) before addition to the RAW264.7 cells. Supernatants were collected after 2 hours (A,B) or 24 hours (C) incubation and TNFα expression was measured. The dotted line represents the average cytokine release of control samples. Results are presented as average +/− SEM (N = 3). Statistical differences were determined by Two-way ANOVA with Bonferroni post-hoc test.

RAW264.7 cells = assay: Phagocytosis assay with fluorescent latex beads; type: cell-based, murine; conditions: 30 min; for Summary class, phagocytosis / Effect on bead uptake (phagocytosis), in words: latex beads 10 per cell; for Summary class, phagocytosis: 37 °C, MFI corrected for 0 °C, peptide 0.31-5 μM, − = no significant effect, N = 3; for Effect on bead uptake (phagocytosis), in words: peptide 0.31, 1.25 and 5 μM
Protocol: Red fluorescent (λex 575 nm and λem 610 nm) carboxylate-modified polystyrene latex beads (0.5 μm; Sigma Aldrich, St. Louis, MO, USA) were washed three times with PBS and resuspended in culture medium. Peptide dilutions were prepared in culture medium and added to RAW264.7 cells, directly followed by the latex beads (ratio 10 beads to 1 cell). Cells were incubated for 30 minutes at 37 °C, 5% CO2 (energy-dependent uptake) or 0 °C (non-specific adherence), after which cells were washed extensively with ice-cold PBS supplemented with 1% FCS and 0.01% NaN3, to remove all free beads. After washing, cells were scraped and resuspended in FACS buffer (PBS supplemented with 0.5% BSA). Samples were measured with the BD FACSCanto II flow cytometer (BD Biosciences, San Jose, CA, USA) and analyzed with FlowJo software (Ashland, OR, USA). Mean fluorescence intensity (MFI), corrected for non-specific adherence, was used as an indicator for the number of beads taken up.
While the above-described functions of cathelicidins are well-known, relatively little is known about the influence of cathelicidins on phagocytosis. Therefore, RAW264.7 cells were incubated with fluorescent beads to study the effect of cathelicidins on phagocytosis. The uptake was corrected for fluorescence measured after incubation on ice instead of 37 °C, which inhibits the active process of phagocytosis. After 30 minutes, 90% of the RAW264.7 cells took up latex beads (Fig. 4A). Histograms exemplify changes in bead phagocytosis with different concentrations of K9CATH (Fig. 4B), eCATH-2 (Fig. 4C) and chCATH-3 (Fig. 4D). Effect of all cathelicidins are depicted by the average mean fluorescence intensity (MFI) in Fig. 4E.
Figure 4 Effects of cathelicidins on phagocytosis by RAW264.7 cells. RAW264.7 cells were incubated with cathelicidins (0.31 μM, 1.25 μM, and 5 μM) and red fluorescent latex beads (10 beads to 1 cell) at 37 °C (energy dependent uptake) or on ice (non-specific adherence) for 30 minutes. Histograms show control (no peptide present) bead uptake at 37 °C (gray, filled) and 0 °C (black line) (A), or uptake in presence of different concentrations of indicated cathelicidins (B–D); 0 μM (red, filled), 0.31 μM (black line), 1.25 μM (green line) or 5 μM (blue line). Uptake was quantified by determining the MFI after correction for 0 °C control (E). Results are presented as average +/− SEM (N = 3). Statistical differences were determined by Two-way ANOVA with Bonferroni post-hoc test.

Substance	Summary class, TLR activation LPS [1]	Summary class, phagocytosis (RAW264.7 cells)	Effect on bead uptake (phagocytosis), in words (RAW264.7 cells)	Increase of bead uptake (RAW264.7 cells; latex beads, not significant) [%]	LPS neutralization / inhibition of LPS-induced activation, in words [1]
Ac-GRFRRLRKKTRKRLKKIGKVLKWIPPIVGSIPLGCG [PMAP-36, porcine α-helical cathelicidin, N-acetylated, 36 residues, charge +13]	↓↓ (↓↓ = significant decrease ≤5 μM)	↓↓ (↓↓ = significant decrease ≤5 μM)	only reduced phagocytosis at 5 μM		
GLLRKGGEKIGEKLKKIGQKIKNFFQKLVPQPEQ [CRAMP, murine cathelicidin, 34 residues, charge +6]	↓↓ (↓↓ = significant decrease ≤5 μM)	↓↓ (↓↓ = significant decrease ≤5 μM)	reduced bead-uptake in a dose-dependent manner		
KRRHWFPLSFQEFLEQLRRFRDQLPFP [eCATH-2, equine CATH-2, 27 residues, charge +4]				~50	
RFGRFLRKIRRFRPKVTITIQGSARF-NH2 [chCATH-2, chicken CATH-2, C-terminal amide, 26 residues, charge +9]	↓↓ (↓↓ = significant decrease ≤5 μM)	↓↓ (↓↓ = significant decrease ≤5 μM)	reduced bead-uptake in a dose-dependent manner		potently inhibited
RIIDLLWRVRRPQKPKFVTVWVR [PMAP-23, porcine α-helical cathelicidin, 23 residues, charge +6]		↓↓ (↓↓ = significant decrease ≤5 μM)	reduced bead-uptake in a dose-dependent manner		None of the equine cathelicidins nor PMAP-23 and PR-39 were capable to neutralize LPS
RLKELITTGGQKIGEKIRRIGQRIKDFFKNLQPREEKS [Peptide K9CATH, dog cathelicidin, 38 residues, charge +6]	↓↓ (↓↓ = significant decrease ≤5 μM)	↓↓ (↓↓ = significant decrease ≤5 μM)	reduced bead-uptake in a dose-dependent manner		significantly inhibited
RRRPRPPYLPRPRPPPFFPPRLPPRIPPGFPPRFPPRFP [PR-39, porcine proline-rich cathelicidin forming a polyproline helix, 39 residues, charge +10]			did not affect bead uptake		None of the equine cathelicidins nor PMAP-23 and PR-39 were capable to neutralize LPS
RVKRFWPLVPVAINTVAAGINLYKAIRRK [chCATH-3, chicken CATH-3, 29 residues, charge +7]	↓↓ (↓↓ = significant decrease ≤5 μM)		did not affect bead uptake		significantly inhibited

From article PMC5244392, “Interspecies cathelicidin comparison reveals divergence in antimicrobial activity, TLR modulation, chemokine induction and regulation of phagocytosis” (Scientific Reports, 2017)
